From US20250205155A1, “FORMULATIONS COMPRISING MELPHALAN FLUFENAMIDE AND CYCLODEXTRIN” (Oncopeptides Innovation AB, priority 2022, published 2025)
Where “and” joins values, the source holds several entries; their conditions need not be identical. Equal entries are not always repeated. Structures can show the parent of a compound that is named as a salt. Where two headings read alike, the source gives them in different places.

Legend:
[1] = Stability of Ex 1 / Ex 2 propylene glycol liquid formulations diluted in γCD saline or glucose solution; format: physicochemical
Protocol: Stock solutions containing 16 mg/mLγCD in […].
The samples were mixed by vortex for 10 seconds and then filtered through a 0.45 μm PTFE filter. The filtrates were analysed by HPLC immediately after sample preparation (i.e. at t0), and then after 2 hours, 5 hours, 7 hours or 18 hours of storage at RT (approximately 23° C.).

[2] = Stability of melphalan flufenamide infusion solution with and without γCD at 5° C.; format: physicochemical; conditions: for decrease of melphalan flufenamide content: infusion solution not comprising γCD
Protocol: A control infusion solution containing no γCD was prepared in accordance with the following method, which is in line with the protocol set out in the U.S. Prescribing Information (USPI) for PEPAXTO® dated February 2021:
An infusion solution containing γCD was prepared according to steps 1 to 5 above, except that step 2 included a step of adding 320 mg of γCD into each vial (i.e. 1:16 ratio w/w of melphalan flufenamide to γCD) followed by mixing the powders by vortex. Steps 3 to 5 were then carried out as set out above.
Immediately after preparation of each infusion solution, 4 mL was withdrawn from the infusion bag and the melphalan flufenamide content was determined by HPLC analysis. These samples represent each infusion solution at the start of the stability study (i.e. the to samples). Each infusion bag was then stored at 5° C. […] The melphalan flufenamide content of each sample was determined by HPLC analysis.
The melphalan flufenamide content of each sample of infusion solution was determined by HPLC analysis using the method described in Example 5.

[3] = format: physicochemical
Protocol: The samples were analysed after 0 h and the samples were stored at room temperature or in the fridge and analysed after 18 h. The remaining API (i.e. the remaining melphalan flufenamide) was reported relative to the area under the curve at t=0 h.
(§1) Analytical HPLC was carried out on an Agilent Series 1100 system using a Kinetex XB C18 (2.6 μm, 3.0×50 mm) column with 0.1% TFA in MiliQ H2O/MeCN as mobile phase (flow 1 mL/min). 5-97% MeCN in 3 minutes.

[4] = Ex 1 lyophilised with HPγCD: reconstitution and stability at infusion concentration; format: physicochemical; conditions: for reconstitution concentration: lyophilised with HPγCD (1:67 w/w), 0.9% saline, fully dissolved
Protocol: The weight ratio (w/w) of melphalan flufenamide (free base):hydroxypropyl-γ-cyclodextrin was 1:67. The mixture was stirred for 30 min at room temperature before being lyophilized overnight. A white, fluffy lyo-cake was formed. The lyophilized material was kept refrigerated for 5 months. 0.9% saline (9000 μL) was added to the lyo-cake and the mixture was vortexed for 1 min. The material was fully dissolved to make a 3.0 mg/mL solution. […] The reconstituted solution was diluted to 0.10 mg/mL in 0.9% saline. […] The stability of the approved drug product […] at 0.10 mg/mL in 0.9% saline after 17 hours at room temperature is approximately 56%.

[5] = Stability of Ex 2 in glucose or saline with and without 16 mg/mL HPγCD at room temperature; format: physicochemical; conditions: 5 hours at room temperature
Protocol: Stock solutions of 16 mg/mL hydroxypropyl-γ-cyclodextrin in 5% glucose and in 0.9% saline were prepared. 20 mg/mL (free base) solution of the compound of Example 2 in propylene glycol was prepared.
To a 2 mL clear vial was added the amounts of each stock solution according to the Table 4 below.
The samples were stored at room temperature and analysed after 0, 2, 5 and 23 h on HPLC. The degradation of the compound was reported relative to the area under the curve at time=0 h. The percentage figure in Table 5 below represents the proportion of remaining compound of Ex 2.
as §1

[6] = Stability of melphalan flufenamide drug product in γCD 5% glucose solutions at RT; format: physicochemical
Protocol: A stock solution of 23 mg/mL γCD 5% glucose solution (w/v in water) was used to prepare working solutions containing 1 mg, 5 mg, 10 mg, 15 mg, 18 mg, 20 mg or 23 mg/mL γCD.
Approximately 50 mg of the melphalan flufenamide drug product (containing approximately 1 mg of melphalan flufenamide) was transferred to […] different 4 mL clear glass vials, followed by addition of 1 mL of a γCD working solution. The solutions were stirred for 5 minutes. The solutions were then filtered through a 0.45 μm PTFE filter. The filtrates were analysed by HPLC immediately after sample preparation (i.e. at t0), and then after 2 hours, 5 hours, 7 hours or 18 hours of storage at RT (approximately 23° C.).
HPLC analysis was performed using an Agilent 1260 series HPLC. Analyses were performed using a Poroshell column 3×50 mm EC-C18 column with a gradient of 5% to 97% acetonitrile, 0.1% formic acid over 3 min and a flow of 1 mL/min. An injection volume 0.2 μL was used. The melphalan flufenamide concentration in each sample was determined by HPLC analysis using a calibration curve for melphalan flufenamide.

[7] = Ex 1 lyophilised with HPγCD in different ratios: reconstitution and stability; format: physicochemical; conditions: HPγCD weight ratio 1:16, 1:20, 1:24 or 1:28, 20 hours at room temperature
Protocol: A 10 wt % solution of hydroxypropyl-γ-cyclodextrin (1750 mg) in t-BuOH/water 1:1 (15.75 g) and a 1:1 tBuOH/water solution were prepared. […] The solutions were lyophilized for 4 d.
The lyophilized material of entries 1 to 4 of Table 10 was reconstituted with 0.9% saline to make 0.5 mg/mL, 1.0 mg/mL and 2.0 mg/mL reconstituted solutions. The lyophilized material fully dissolved in each reconstituted solution. Portions of the 0.5 mg/mL, 1.0 mg/mL and 2.0 mg/mL reconstituted solutions were then diluted to 0.10 mg/mL in 0.9% saline (infusion concentration) and these 0.10 mg/mL solutions, and also a samples of the 0.5 mg/mL reconstituted solutions, were analyzed by HPLC after 0, 4 and 20 hours at room temperature.

[8] = Stability of lyophilised Ex 1-excipient mixtures in 5% glucose solution (HPLC); format: physicochemical; conditions: 25° C. to 30° C. for 22 hours
Protocol: The following excipients were used: trehalose dihydrate, sucrose, polysorbate 80, α-cyclodextrin, β-cyclodextrin, propylene glycol, 2-hydroxypropyl-β-cyclodextrin, and γCD.
(§2) A stock solution of each excipient was prepared in water (10 mg/mL). An aliquot of 400 μL (4 mg) of each stock solution was then transferred to a separate transparent 4 mL vial. The vials containing the stock solutions were then cooled and lyophilized using a Christ Alpha 2-4 LSC Plus instrument.
(§3) The mixtures were cooled and lyophilized overnight.
1 mL of a 5% glucose solution (w/v in water) containing 0.08 mg/mL 3-methoxybenzoic as an internal standard was added to each vial containing a lyophilized Ex 1-excipient mixture. The vials were then mixed by shaking for 15 seconds, and then shaken occasionally for 5 minutes. The solutions were transferred to Whatman® Mini-UniPrep® syringeless filters and filtered according to the manufacturer's instructions. The filtrate was transferred to a glass vial to prevent further dissolution. These filtrates represent the starting concentrations of melphalan flufenamide for each solution (i.e. the to samples). The to samples were analysed by HPLC as described below and then stored at 25° C. to 30° C. for 22 hours. […]

[9] = Rate of dissolution of lyophilised Ex 1-excipient mixtures in 5% glucose solution, 15 seconds (HPLC); format: physicochemical; conditions: solution containing γCD
Protocol: as §2, §3
A 5% glucose solution (w/v in water) containing 0.08 mg/mL 3-methoxybenzoic as an internal standard was added to each vial containing a lyophilized Ex 1-excipient mixture. The vials were then mixed by shaking for 15 seconds. Approximately half of the solution was then transferred to a Whatman® Mini-UniPrep© syringeless filter and filtered according to the manufacturer's instructions. The filtrate was immediately transferred to a glass vial to prevent further dissolution.
HPLC analysis of each sample was performed using the same method as described in Example 1.

[10] = Solubility of Ex 1 in aqueous solution in the absence of an excipient; conditions: aqueous solution without excipient, water

[2H]C([2H])([2H])C([2H])([2H])OC(=O)[C@H](Cc1ccc(F)cc1)NC(=O)[C@@H](N)Cc1ccc(N(CCCl)CCCl)cc1 [Ex 2, (^2H5)ethyl (2S)-2-[(2S)-2-amino-3-{4-[bis(2-chloroethyl)amino]phenyl}propanamido]-3-(4-fluorophenyl)propanoate hydrochloride]
stability of Ex 2 in control solutions ([1]; 6% propylene glycol and saline only or 6% propylene glycol and 5% glucose only): poor stability
stability of Ex 2 in the presence of γCD ([1]; saline or 5% glucose solution, γCD about 16:1, 30:1, 80:1 w/w, hydrochloride): improved the stability

CCOC(=O)[C@H](Cc1ccc(F)cc1)NC(=O)[C@@H](N)Cc1ccc(N(CCCl)CCCl)cc1 [melphalan flufenamide, ethyl (2S)-2-[[(2S)-2-amino-3-[4-[bis(2-chloroethyl)amino]phenyl]propanoyl]amino]-3-(4-fluorophenyl)propanoate]
decrease of melphalan flufenamide content relative to t0 ([2]; control infusion solution without γCD, 43 hours at 5° C.): approximately 10%
decrease of melphalan flufenamide content ([2]; 24 hours at 5° C.): approximately 7%
decrease of melphalan flufenamide content ([2]; 24 hours at 5° C., listed as melflufen flufenamide): about 5%
degradation rate ([2]; saline infusion solution comprising γCD, 5° C.): about 1 % per 24 hours
decrease of melflufen flufenamide content ([2]; saline infusion solution not comprising γCD, 48 hours at 5° C.): about 8%
decrease of melflufen flufenamide content ([2]; saline infusion solution with γCD, 24 hours at 5° C.): about 1%
decrease of melflufen flufenamide content ([2]; saline infusion solution with γCD, 48 hours at 5° C.): about 2%
melphalan flufenamide content retained ([3]; 0.2 mg/mL, HPγCD weight ratio 1:20, 1:24, 1:28, 1:32, 1:36 or 1:40, 18 hours at room temperature): over 78%
melphalan flufenamide content retained ([3]; 0.2 mg/mL, HPγCD weight ratio 1:20 to 1:40, 18 hours in a fridge): over 93%
melphalan flufenamide content retained ([3]; aqueous solution, HPγCD about 36:1 w/w, 18 hours at room temperature): 87%
reconstitution concentration [4]: up to 3.0 mg/mL
average decrease of melflufen flufenamide content ([5]; saline infusion solution with hydroxypropyl-γCD): about 4%
average decrease of melflufen flufenamide content ([5]; saline infusion solution without HPγCD): about 40%
stabilisation by γCD ([6]; 1 to 23 equivalents of γCD (w/w), up to 18 hours): stabilised
stability by γCD ratio ([6]; 15, 18 and 23 equivalents of γCD (w/w)): most stable
melphalan flufenamide content retained ([7]; 0.1 mg/mL): over 80%
melphalan flufenamide content retained ([7]; 0.5 mg/mL): > 90%

CCOC(=O)[C@H](Cc1ccc(F)cc1)NC(=O)[C@@H](N)Cc1ccc(N(CCCl)CCCl)cc1 [Ex 1, melphalan flufenamide hydrochloride]
decrease of melphalan flufenamide content relative to t0 ([8]; solution with γCD): 31%
Ex 1 remaining in solution ([8]; γCD 5% glucose solution, γCD:melphalan flufenamide about 4:1 w/w): 69%
Ex 1 remaining ([4]; lyophilised with HPγCD 1:67 w/w, reconstituted 3.0 mg/mL, diluted to 0.10 mg/mL in 0.9% saline, 17 hours at room temperature): 91%
reconstitution concentration ([4]; hydrochloride): 3.0 mg/mL and 3 mg/mL
Ex 1 dissolved within the first 15 seconds of mixing [9]: 68%
solubility [10]: < 400 µg/mL
